What all share (format): functional
Common to all, as to conditions: time 16-18 hrs

Assay [1] has as its system Acinetobacter baumannii. Nature of the assay: Antibacterial activity against Acinetobacter baumannii ATCC17978 incubated for 16 to 18 hrs by muller hinton broth based microplate reader analysis.
The subject of assay [2] is Escherichia coli. Nature of the assay: Antibacterial activity against Escherichia coli ATCC35150 incubated for 16 to 18 hrs by muller hinton broth based microplate reader analysis.
Assay [3] concerns Escherichia coli. Nature of the assay: Antibacterial activity against Escherichia coli ATCC25922 incubated for 16 to 18 hrs by muller hinton broth based microplate reader analysis.
The subject of assay [4] is Acinetobacter baumannii. The experiment in a line: Antibacterial activity against Acinetobacter baumannii ATCC19606 incubated for 16 to 18 hrs by muller hinton broth based microplate reader analysis.
Assay [5] has as its system Staphylococcus aureus. The experiment in a line: Antibacterial activity vancomycin-intermediate resistant Staphylococcus aureus incubated for 16 to 18 hrs by muller hinton broth based microplate reader analysis.
Assay [6] has as its system Staphylococcus aureus. Nature of the assay: Antibacterial activity against methicillin-resistant Staphylococcus aureus USA300 incubated for 16 to 18 hrs by muller hinton broth based microplate reader analysis.

≈ marks a conversion by molar mass, not a printed value.

Regarding `CN[C@H](CC(C)C)C(=O)N[C@H]1C(=O)N[C@@H](CC(N)=O)C(=O)N[C@H]2C(=O)N[C@H]3C(=O)N[C@H](C(=O)N[C@H](C(=O)O)c4cc(O)cc(O)c4-c4cc3ccc4O)[C@H](O)c3ccc(c(Cl)c3)Oc3cc2cc(c3O[C@@H]2O[C@H](CO)[C@@H](O)[C@H](O)[C@H]2O[C@H]2C[C@](C)(NC(=O)CCCCCCCCCCC[n+]3cccc(O)c3)[C@H](O)[C@H](C)O2)Oc2ccc(cc2Cl)[C@H]1O.[Br-]`, the MIC in the assay on Acinetobacter baumannii [1] was over 128 µg/mL; against Escherichia coli [2], over 128 µg/mL; in the assay on Escherichia coli [3], over 128 µg/mL; in the assay on Acinetobacter baumannii [4], over 128 µg/mL; against Staphylococcus aureus [5] it was 64 µg/mL; with Staphylococcus aureus [6], 8 µg/mL.

With `CN[C@H](CC(C)C)C(=O)N[C@H]1C(=O)N[C@@H](CC(N)=O)C(=O)N[C@H]2C(=O)N[C@H]3C(=O)N[C@H](C(=O)N[C@H](C(=O)O)c4cc(O)cc(O)c4-c4cc3ccc4O)[C@H](O)c3ccc(c(Cl)c3)Oc3cc2cc(c3O[C@@H]2O[C@H](CO)[C@@H](O)[C@H](O)[C@H]2O[C@H]2C[C@](C)(NC(=O)CCCCCCCCC[n+]3ccc(C)cc3)[C@H](O)[C@H](C)O2)Oc2ccc(cc2Cl)[C@H]1O.[Br-]`, the MIC against Acinetobacter baumannii [1] is over 128 µg/mL; against Escherichia coli [2], over 128 µg/mL; with Escherichia coli [3], over 128 µg/mL; in the assay with Acinetobacter baumannii [4] it was over 128 µg/mL; in the assay on Staphylococcus aureus [5] it was over 128 µg/mL; against Staphylococcus aureus [6], 8 µg/mL.

Regarding `CN[C@H](CC(C)C)C(=O)N[C@H]1C(=O)N[C@@H](CC(N)=O)C(=O)N[C@H]2C(=O)N[C@H]3C(=O)N[C@H](C(=O)N[C@H](C(=O)N4CCN(C)CC4)c4cc(O)cc(O)c4-c4cc3ccc4O)[C@H](O)c3ccc(c(Cl)c3)Oc3cc2cc(c3O[C@@H]2O[C@H](CO)[C@@H](O)[C@H](O)[C@H]2O[C@H]2C[C@](C)(N)[C@H](O)[C@H](C)O2)Oc2ccc(cc2Cl)[C@H]1O` (stereo in doubt), the MIC with Acinetobacter baumannii [1] is over 128 µg/mL; with Escherichia coli [2], over 128 µg/mL; with Escherichia coli [3], over 128 µg/mL; against Acinetobacter baumannii [4] it was over 128 µg/mL; in the assay on Staphylococcus aureus [5], over 128 µg/mL; in the assay with Staphylococcus aureus [6], 4 µg/mL (≈ 2.61 µM).

On to `CCCCCCCCCCCC[n+]1ccc(C(=O)NCCNC(=O)[C@@H]2NC(=O)[C@H]3NC(=O)[C@H](NC(=O)[C@@H]4NC(=O)[C@H](CC(N)=O)NC(=O)[C@H](NC(=O)[C@@H](CC(C)C)NC)[C@H](O)c5ccc(c(Cl)c5)Oc5cc4cc(c5O[C@@H]4O[C@H](CO)[C@@H](O)[C@H](O)[C@H]4O[C@H]4C[C@](C)(N)[C@H](O)[C@H](C)O4)Oc4ccc(cc4Cl)[C@H]3O)c3ccc(O)c(c3)-c3c(O)cc(O)cc32)cc1.[Br-]` (stereo in doubt), for which the MIC against Acinetobacter baumannii [1] was 64 µg/mL; against Escherichia coli [2], over 128 µg/mL; against Escherichia coli [3] it was over 128 µg/mL; against Acinetobacter baumannii [4] it was 16 µg/mL; in the assay with Staphylococcus aureus [5] it was 64 µg/mL; against Staphylococcus aureus [6], 2 µg/mL.

On to `CCCCCCCCCCCCCCCCCC[N+]1(C)CCN(C(=O)[C@H]2NC(=O)[C@H]3NC(=O)[C@H](NC(=O)[C@@H]4NC(=O)[C@H](CC(N)=O)NC(=O)[C@H](NC(=O)[C@@H](CC(C)C)NC)[C@H](O)c5ccc(c(Cl)c5)Oc5cc4cc(c5O[C@@H]4O[C@H](CO)[C@@H](O)[C@H](O)[C@H]4O[C@H]4C[C@](C)(N)[C@H](O)[C@H](C)O4)Oc4ccc(cc4Cl)[C@H]3O)c3ccc(O)c(c3)-c3c(O)cc(O)cc32)CC1.[Br-]` (stereo in doubt), for which the MIC was over 128 µg/mL in the assay with Acinetobacter baumannii [1]; over 128 µg/mL against Escherichia coli [2]; over 128 µg/mL against Escherichia coli [3]; over 128 µg/mL in the assay on Acinetobacter baumannii [4]; 64 µg/mL in the assay with Staphylococcus aureus [5]; 1 µg/mL in the assay with Staphylococcus aureus [6].

On to `CN[C@H](CC(C)C)C(=O)N[C@H]1C(=O)N[C@@H](CC(N)=O)C(=O)N[C@H]2C(=O)N[C@H]3C(=O)N[C@H](C(=O)N[C@H](C(=O)O)c4cc(O)cc(O)c4-c4cc3ccc4O)[C@H](O)c3ccc(c(Cl)c3)Oc3cc2cc(c3O[C@@H]2O[C@H](CO)[C@@H](O)[C@H](O)[C@H]2O[C@H]2C[C@](C)(NC(=O)CCCCCCCCCCC[n+]3ccccc3)[C@H](O)[C@H](C)O2)Oc2ccc(cc2Cl)[C@H]1O.[Br-]`, for which the MIC was over 128 µg/mL in the assay on Acinetobacter baumannii [1]; over 128 µg/mL against Escherichia coli [2]; over 128 µg/mL in the assay on Escherichia coli [3]; over 128 µg/mL in the assay on Acinetobacter baumannii [4]; 64 µg/mL against Staphylococcus aureus [5]; 4 µg/mL against Staphylococcus aureus [6].

On to `CCCCCCCCCCCCCC[N+]1(C)CCN(C(=O)c2ccc(CN[C@@]3(C)C[C@H](O[C@H]4[C@H](Oc5c6cc7cc5Oc5ccc(cc5Cl)[C@@H](O)[C@@H](NC(=O)[C@@H](CC(C)C)NC)C(=O)N[C@@H](CC(N)=O)C(=O)N[C@H]7C(=O)N[C@H]5C(=O)N[C@H](C(=O)N[C@H](C(=O)O)c7cc(O)cc(O)c7-c7cc5ccc7O)[C@H](O)c5ccc(c(Cl)c5)O6)O[C@H](CO)[C@@H](O)[C@@H]4O)O[C@@H](C)[C@H]3O)cc2)CC1.[Br-]`, for which the MIC is over 128 µg/mL in the assay on Acinetobacter baumannii [1]; over 128 µg/mL with Escherichia coli [2]; over 128 µg/mL against Escherichia coli [3]; over 128 µg/mL against Acinetobacter baumannii [4]; 64 µg/mL with Staphylococcus aureus [5]; 2 µg/mL with Staphylococcus aureus [6].

Take `CN[C@H](CC(C)C)C(=O)N[C@H]1C(=O)N[C@@H](CC(N)=O)C(=O)N[C@H]2C(=O)N[C@H]3C(=O)N[C@H](C(=O)N[C@H](C(=O)O)c4cc(O)cc(O)c4-c4cc3ccc4O)[C@H](O)c3ccc(c(Cl)c3)Oc3cc2cc(c3O[C@@H]2O[C@H](CO)[C@@H](O)[C@H](O)[C@H]2O[C@H]2C[C@](C)(NC(=O)CCCCCCC[n+]3ccc(C)cc3)[C@H](O)[C@H](C)O2)Oc2ccc(cc2Cl)[C@H]1O.[Br-]`: the MIC is over 128 µg/mL in the assay with Acinetobacter baumannii [1]; over 128 µg/mL in the assay with Escherichia coli [2]; over 128 µg/mL with Escherichia coli [3]; over 128 µg/mL in the assay with Acinetobacter baumannii [4]; over 128 µg/mL with Staphylococcus aureus [5]; 8 µg/mL in the assay with Staphylococcus aureus [6].

Turning to `CN[C@H](CC(C)C)C(=O)N[C@H]1C(=O)N[C@@H](CC(N)=O)C(=O)N[C@H]2C(=O)N[C@H]3C(=O)N[C@H](C(=O)N[C@H](C(=O)O)c4cc(O)cc(O)c4-c4cc3ccc4O)[C@H](O)c3ccc(c(Cl)c3)Oc3cc2cc(c3O[C@@H]2O[C@H](CO)[C@@H](O)[C@H](O)[C@H]2O[C@H]2C[C@](C)(NC(=O)CCCCCCCCCCC[n+]3ccc(N)cc3)[C@H](O)[C@H](C)O2)Oc2ccc(cc2Cl)[C@H]1O.O=C(O)C(F)(F)F.[Br-]`, the MIC in the assay with Acinetobacter baumannii [1] was over 128 µg/mL; in the assay on Escherichia coli [2], over 128 µg/mL; in the assay with Escherichia coli [3], over 128 µg/mL; in the assay with Acinetobacter baumannii [4], over 128 µg/mL; in the assay with Staphylococcus aureus [5], 32 µg/mL; with Staphylococcus aureus [6], 1 µg/mL.

Consider `CN[C@H](CC(C)C)C(=O)N[C@H]1C(=O)N[C@@H](CC(N)=O)C(=O)N[C@H]2C(=O)N[C@H]3C(=O)N[C@H](C(=O)N[C@H](C(=O)O)c4cc(O)cc(O)c4-c4cc3ccc4O)[C@H](O)c3ccc(c(Cl)c3)Oc3cc2cc(c3O[C@@H]2O[C@H](CO)[C@@H](O)[C@H](O)[C@H]2O[C@H]2C[C@](C)(NC(=O)CCCCCCCCCCC[n+]3ccc(C)cc3)[C@H](O)[C@H](C)O2)Oc2ccc(cc2Cl)[C@H]1O.[Br-]`, for which the MIC was over 128 µg/mL in the assay on Acinetobacter baumannii [1]; over 128 µg/mL in the assay on Escherichia coli [2]; over 128 µg/mL against Escherichia coli [3]; over 128 µg/mL in the assay with Acinetobacter baumannii [4]; over 128 µg/mL against Staphylococcus aureus [5]; 4 µg/mL against Staphylococcus aureus [6].

For the molecule `CCCCCCCCCCCCCC[N+]1(C)CCN(C(=O)[C@H]2NC(=O)[C@H]3NC(=O)[C@H](NC(=O)[C@@H]4NC(=O)[C@H](CC(N)=O)NC(=O)[C@H](NC(=O)[C@@H](CC(C)C)NC)[C@H](O)c5ccc(c(Cl)c5)Oc5cc4cc(c5O[C@@H]4O[C@H](CO)[C@@H](O)[C@H](O)[C@H]4O[C@H]4C[C@](C)(N)[C@H](O)[C@H](C)O4)Oc4ccc(cc4Cl)[C@H]3O)c3ccc(O)c(c3)-c3c(O)cc(O)cc32)CC1.[Br-]` (stereo in doubt), the MIC against Acinetobacter baumannii [1] is 32 µg/mL; with Escherichia coli [2], 32 µg/mL; against Escherichia coli [3] it was 32 µg/mL; with Acinetobacter baumannii [4], 32 µg/mL; against Staphylococcus aureus [5], 32 µg/mL; against Staphylococcus aureus [6], 1 µg/mL.

Regarding `CN[C@H](CC(C)C)C(=O)N[C@H]1C(=O)N[C@@H](CC(N)=O)C(=O)N[C@H]2C(=O)N[C@H]3C(=O)N[C@H](C(=O)N[C@H](C(=O)O)c4cc(O)cc(O)c4-c4cc3ccc4O)[C@H](O)c3ccc(c(Cl)c3)Oc3cc2cc(c3O[C@@H]2O[C@H](CO)[C@@H](O)[C@H](O)[C@H]2O[C@H]2C[C@](C)(NC(=O)CCCCCCCCCCC[n+]3cccc(NC(=O)OC(C)(C)C)c3)[C@H](O)[C@H](C)O2)Oc2ccc(cc2Cl)[C@H]1O.[Br-]`, the MIC is over 128 µg/mL against Acinetobacter baumannii [1]; over 128 µg/mL in the assay with Escherichia coli [2]; over 128 µg/mL in the assay on Escherichia coli [3]; over 128 µg/mL with Acinetobacter baumannii [4]; over 128 µg/mL against Staphylococcus aureus [5]; 4 µg/mL with Staphylococcus aureus [6].

Regarding `CCCCCCCCCC[n+]1ccc(C(=O)NCCNC(=O)[C@H]2NC(=O)[C@H]3NC(=O)[C@H](NC(=O)[C@@H]4NC(=O)[C@H](CC(N)=O)NC(=O)[C@H](NC(=O)[C@@H](CC(C)C)NC)[C@H](O)c5ccc(c(Cl)c5)Oc5cc4cc(c5O[C@@H]4O[C@H](CO)[C@@H](O)[C@H](O)[C@H]4O[C@H]4C[C@](C)(N)[C@H](O)[C@H](C)O4)Oc4ccc(cc4Cl)[C@H]3O)c3ccc(O)c(c3)-c3c(O)cc(O)cc32)cc1.[Br-]`, the MIC against Acinetobacter baumannii [1] was 32 µg/mL; in the assay with Escherichia coli [2], over 128 µg/mL; with Escherichia coli [3] it was over 128 µg/mL; in the assay with Acinetobacter baumannii [4] it was 16 µg/mL; in the assay on Staphylococcus aureus [5], 64 µg/mL; against Staphylococcus aureus [6], 2 µg/mL.

In the case of `CCCCCCCCCCCCCC[n+]1ccc(C(=O)NCCNC(=O)[C@H]2NC(=O)[C@H]3NC(=O)[C@H](NC(=O)[C@@H]4NC(=O)[C@H](CC(N)=O)NC(=O)[C@H](NC(=O)[C@@H](CC(C)C)NC)[C@H](O)c5ccc(c(Cl)c5)Oc5cc4cc(c5O[C@@H]4O[C@H](CO)[C@@H](O)[C@H](O)[C@H]4O[C@H]4C[C@](C)(N)[C@H](O)[C@H](C)O4)Oc4ccc(cc4Cl)[C@H]3O)c3ccc(O)c(c3)-c3c(O)cc(O)cc32)cc1.[Br-]` (stereo in doubt), the minimal inhibitory concentration (MIC) with Acinetobacter baumannii [1] was over 128 µg/mL; against Escherichia coli [2] it was over 128 µg/mL; in the assay with Escherichia coli [3] it was over 128 µg/mL; in the assay with Acinetobacter baumannii [4] it was over 128 µg/mL; in the assay on Staphylococcus aureus [5], 64 µg/mL; in the assay with Staphylococcus aureus [6], 4 µg/mL.
